Measurements as given in patent publication US9663543B2 (priority 2014, dated 2017).

Molecular target: Human factor D (Homo sapiens (Human), UniProt P00746)
Type: biochemical

Sequence of Human factor D (P00746 26-253 limits assumed): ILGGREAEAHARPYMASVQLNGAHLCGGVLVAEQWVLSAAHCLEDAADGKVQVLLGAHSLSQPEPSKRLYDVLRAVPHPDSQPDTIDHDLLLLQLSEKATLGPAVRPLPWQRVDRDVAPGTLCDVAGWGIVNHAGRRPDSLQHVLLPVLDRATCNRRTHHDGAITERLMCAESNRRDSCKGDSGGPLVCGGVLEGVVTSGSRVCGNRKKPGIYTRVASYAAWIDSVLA

Compound `CC(=O)c1cn(CC(=O)N2C[C@H](F)C[C@H]2C(=O)NCc2cccc(Cl)c2F)c2cc(P(=O)(O)OCOC(=O)OC(C)C)ccc12` [Compound 22, ((3-acetyl-1-(2-((2S,4R)-2-(3-chloro-2-fluorobenzylcarbamoyl)-4-fluoropyrrolidin-1-yl)-2-oxoethyl)-1H-indol-6-yl)(hydroxy)phosphoryloxy) methyl isopropyl carbonate] has an IC50 of less than 1000 nM.
`CC(=O)c1cn(CC(=O)N2C[C@H](F)C[C@H]2C(=O)NCc2cccc(Cl)c2F)c2cc(P(=O)(O)c3ccccc3)ccc12` [Compound 25, 3-acetyl-1-(2-((2S,4R)-2-(3-chloro-2-fluorobenzylcarbamoyl)-4-fluoropyrrolidin-1-yl)-2-oxoethyl)-1H-indol-6-yl(phenyl)phosphinic acid] was tested, and the IC50 was less than 1000 nM.
Work on `CC(=O)c1cn(CC(=O)N2C[C@H](F)C[C@H]2C(=O)NCc2cccc(Cl)c2F)c2cc(P(=O)(O)O)ccc12` [Compound 3, 3-acetyl-1-(2-((2S,4R)-2-(3-chloro-2-fluorobenzylcarbamoyl)-4-fluoropyrrolidin-1-yl)-2-oxoethyl)-1H-indol-6-ylphosphonic acid] yielded an IC50 of less than 1000 nM.
With `CCOP(=O)(O)c1ccc2c(C(C)=O)cn(CC(=O)N3C[C@H](F)C[C@H]3C(=O)NCc3cccc(Cl)c3F)c2c1` [Compound 2, ethyl hydrogen 3-acetyl-1-(2-((2S,4R)-2-(3-chloro-2-fluorobenzylcarbamoyl)-4-fluoropyrrolidin-1-yl)-2-oxoethyl)-1H-indol-6-ylphosphonate] the IC50 was less than 1000 nM.
In the case of `CC(=O)c1cn(CC(=O)N2C[C@H](F)C[C@H]2C(=O)NCc2cccc(Cl)c2F)c2cc(P(=O)(O)OCOC(=O)C(C)(C)C)ccc12` [Compound 28, ((3-acetyl-1-(2-((2S,4R)-2-(3-chloro-2-fluorobenzylcarbamoyl)-4-fluoropyrrolidin-1-yl)-2-oxoethyl)-1H-indol-6-yl)(hydroxy)phosphoryloxy) methyl pivalate], the IC50 is reported as less than 1000 nM.
`CCOP(=O)(OCOC(=O)OC(C)C)c1ccc2c(C(C)=O)cn(CC(=O)N3C[C@H](F)C[C@H]3C(=O)NCc3cccc(Cl)c3F)c2c1` (stereo partly drawn) [Compound 6, ((3-acetyl-1-(2-((2S,4R)-2-(3-chloro-2-fluorobenzylcarbamoyl)-4-fluoropyrrolidin-1-yl)-2-oxoethyl)-1H-indol-6-yl)(ethoxy)phosphoryloxy) methyl isopropyl carbonate] gave an IC50 of less than 1000 nM.
`CC(=O)c1cn(CC(=O)N2C[C@H](F)C[C@H]2C(=O)NCc2cccc(Cl)c2F)c2cc(P(=O)(O)OCC(F)(F)F)ccc12` [Compound 29, 2,2,2-trifluoroethyl hydrogen 3-acetyl-1-(2-((2S,4R)-2-(3-chloro-2-fluorobenzylcarbamoyl)-4-fluoropyrrolidin-1-yl)-2-oxoethyl)-1H-indol-6-ylphosphonate] showed an IC50 of less than 1000 nM.
`CCOP(=O)(OCC)c1ccc2c(C(N)=O)nn(CC(=O)N3C[C@H](F)C[C@H]3C(=O)NCc3cccc(Cl)c3F)c2c1` [Compound 17, diethyl 3-carbamoyl-1-(2-((2S,4R)-2-(3-chloro-2-fluorobenzylcarbamoyl)-4-fluoropyrrolidin-1-yl)-2-oxoethyl)-1H-indazol-6-ylphosphonate] was tested, and the IC50 was less than 1000 nM.
`CCOP(=O)(O)c1ccc2c(c1)c(C(C)=O)cn2CC(=O)N1C[C@H](F)C[C@H]1C(=O)NCc1cccc(Cl)c1F` [Compound 9, ethyl hydrogen 3-acetyl-1-(2-((2S,4R)-2-(3-chloro-2-fluorobenzylcarbamoyl)-4-fluoropyrrolidin-1-yl)-2-oxoethyl)-1H-indol-5-ylphosphonate] was tested, and the IC50 was greater than 10000 nM.
`CC(=O)c1cn(CC(=O)N2C[C@H](F)C[C@H]2C(=O)NCc2cccc(Cl)c2F)c2cc(P(=O)(OCOC(=O)OC(C)C)OCOC(=O)OC(C)C)ccc12` [Compound 4, ((3-acetyl-1-(2-((2S,4R)-2-(3-chloro-2-fluorobenzylcarbamoyl)-4-fluoropyrrolidin-1-yl)-2-oxoethyl)-1H-indol-6-yl)phosphoryl)bis(oxy)bis (methylene) isopropyl dicarbonate] was tested, and the IC50 was less than 1000 nM.
`CCP(=O)(O)c1ccc2c(C(C)=O)cn(CC(=O)N3C[C@H](F)C[C@H]3C(=O)NCc3cccc(Cl)c3F)c2c1` [Compound 27, 3-acetyl-1-(2-((2S,4R)-2-(3-chloro-2-fluorobenzylcarbamoyl)-4-fluoropyrrolidin-1-yl)-2-oxoethyl)-1H-indol-6-yl(ethyl)phosphinic acid] gave an IC50 of less than 1000 nM.
`CCCCOP(=O)(O)c1ccc2c(C(C)=O)cn(CC(=O)N3C[C@H](F)C[C@H]3C(=O)NCc3cccc(Cl)c3F)c2c1` [Compound 21, butyl hydrogen 3-acetyl-1-(2-((2S,4R)-2-(3-chloro-2-fluorobenzylcarbamoyl)-4-fluoropyrrolidin-1-yl)-2-oxoethyl)-1H-indol-6-ylphosphonate] was tested, and the IC50 was less than 1000 nM.
For `CCOP(=O)(c1ccccc1)c1ccc2c(C(C)=O)cn(CC(=O)N3C[C@H](F)C[C@H]3C(=O)NCc3cccc(Cl)c3F)c2c1` (stereo partly drawn) [Compound 23, ethyl 3-acetyl-1-(2-((2S,4R)-2-(3-chloro-2-fluorobenzylcarbamoyl)-4-fluoropyrrolidin-1-yl)-2-oxoethyl)-1H-indol-6-yl(phenyl)phosphinate], the IC50 was less than 1000 nM.
`CCOP(=O)(OCC)c1ccc2c(C(=O)OC)cn(CC(=O)N3C[C@H](F)C[C@H]3C(=O)NCc3cccc(Cl)c3F)c2c1` [Compound 13, methyl 1-(2-((2S,4R)-2-(3-chloro-2-fluorobenzylcarbamoyl)-4-fluoropyrrolidin-1-yl)-2-oxoethyl)-6-(diethoxyphosphoryl)-1H-indole-3-carboxylate] was tested, and the IC50 was less than 1000 nM.
With `O=C(NCc1cccc(Cl)c1F)[C@@H]1C[C@@H](F)CN1C(=O)Cn1cc(C(=O)C(F)(F)F)c2ccc(P(=O)(O)O)cc21` [Compound 32, 1-(2-((2S,4R)-2-(3-chloro-2-fluorobenzylcarbamoyl)-4-fluoropyrrolidin-1-yl)-2-oxoethyl)-3-(2,2,2-trifluoroacetyl)-1H-indol-6-ylphosphonic acid] the IC50 was less than 1000 nM.
`CCOP(=O)(OCC)c1cc2c(cc1F)c(C(C)=O)cn2CC(=O)N1C[C@H](F)C[C@H]1C(=O)NCc1cccc(Cl)c1F` [Compound 30, diethyl 3-acetyl-1-(2-((2S,4R)-2-(3-chloro-2-fluorobenzylcarbamoyl)-4-fluoropyrrolidin-1-yl)-2-oxoethyl)-5-fluoro-1H-indol-6-ylphosphonate] gave an IC50 of less than 1000 nM.
With `COC(=O)c1cn(CC(=O)N2C[C@H](F)C[C@H]2C(=O)NCc2cccc(Cl)c2F)c2cc(P(=O)(O)O)ccc12` [Compound 14, 1-(2-((2S,4R)-2-(3-chloro-2-fluorobenzylcarbamoyl)-4-fluoropyrrolidin-1-yl)-2-oxoethyl)-3-(methoxycarbonyl)-1H-indol-6-ylphosphonic acid] the IC50 was less than 1000 nM.
In the case of `CCOP(=O)(OCC)c1ccc2c(C(N)=O)cn(CC(=O)N3C[C@H](F)C[C@H]3C(=O)NCc3cccc(Cl)c3F)c2c1` [Compound 15, diethyl 3-carbamoyl-1-(2-((2S,4R)-2-(3-chloro-2-fluorobenzylcarbamoyl)-4-fluoropyrrolidin-1-yl)-2-oxoethyl)-1H-indol-6-ylphosphonate], the IC50 is reported as less than 1000 nM.
`CC(=O)c1cn(CC(=O)N2[C@@H]3CCC[C@@H]3C[C@H]2C(=O)NCc2cccc(Cl)c2F)c2cc(P(=O)(O)O)ccc12` [Compound 7, 3-acetyl-1-(2-((2S,3aR,6aR)-2-(3-chloro-2-fluorobenzylcarbamoyl)hexa-hydrocyclopenta[b]pyrrol-1(2H)-yl)-2-oxoethyl)-1H-indol-6-ylphosphonic acid] gave an IC50 of less than 1000 nM.
`NC(=O)c1nn(CC(=O)N2C[C@H](F)C[C@H]2C(=O)NCc2cccc(Cl)c2F)c2cc(P(=O)(O)O)ccc12` [Compound 18, 3-carbamoyl-1-(2-((2S,4R)-2-(3-chloro-2-fluorobenzylcarbamoyl)-4-fluoropyrrolidin-1-yl)-2-oxoethyl)-1H-indazol-6-ylphosphonic acid] was tested, and the IC50 was less than 1000 nM.
`CCOP(=O)(OCC)c1ccc2c(C(C)=O)cn(CC(=O)N3C[C@H](F)C[C@H]3C(=O)NCc3cccc(Cl)c3F)c2c1` [Compound 1, diethyl 3-acetyl-1-(2-((2S,4R)-2-(3-chloro-2-fluorobenzylcarbamoyl)-4-fluoropyrrolidin-1-yl)-2-oxoethyl)-1H-indol-6-ylphosphonate] gave an IC50 of less than 1000 nM.
`CCOP(=O)(OCC)c1ccc2c(C(=O)O)nn(CC(=O)N3C[C@H](F)C[C@H]3C(=O)NCc3cccc(Cl)c3F)c2c1` [Compound 12, 1-(2-((2S,4R)-2-(3-chloro-2-fluorobenzylcarbamoyl)-4-fluoropyrrolidin-1-yl)-2-oxoethyl)-6-(diethoxyphosphoryl)-1H-indazole-3-carboxylic acid] was tested, and the IC50 was greater than 10000 nM.
`CCOC(=O)c1nn(CC(=O)N2C[C@H](F)C[C@H]2C(=O)NCc2cccc(Cl)c2F)c2cc(P(=O)(OCC)OCC)ccc12` [Compound 11, ethyl 1-(2-((2S,4R)-2-(3-chloro-2-fluorobenzylcarbamoyl)-4-fluoropyrrolidin-1-yl)-2-oxoethyl)-6-(diethoxyphosphoryl)-1H-indazole-3-carboxylate] showed an IC50 greater than 10000 nM.
`NC(=O)c1cn(CC(=O)N2C[C@H](F)C[C@H]2C(=O)NCc2cccc(Cl)c2F)c2cc(P(=O)(O)O)ccc12` [Compound 16, 3-carbamoyl-1-(2-((2S,4R)-2-(3-chloro-2-fluorobenzylcarbamoyl)-4-fluoropyrrolidin-1-yl)-2-oxoethyl)-1H-indol-6-ylphosphonic acid] was tested, and the IC50 was less than 1000 nM.
`CC(=O)c1cn(CC(=O)N2C[C@H](F)C[C@H]2C(=O)NCc2cccc(Cl)c2F)c2cc(P(=O)(O)O)c(F)cc12` [Compound 31, 3-acetyl-1-(2-((2S,4R)-2-(3-chloro-2-fluorobenzylcarbamoyl)-4-fluoropyrrolidin-1-yl)-2-oxoethyl)-5-fluoro-1H-indol-6-ylphosphonic acid] showed an IC50 of less than 1000 nM.
`CCCCOP(=O)(OCCCC)c1ccc2c(C(C)=O)cn(CC(=O)N3C[C@H](F)C[C@H]3C(=O)NCc3cccc(Cl)c3F)c2c1` [Compound 20, dibutyl 3-acetyl-1-(2-((2S,4R)-2-(3-chloro-2-fluorobenzylcarbamoyl)-4-fluoropyrrolidin-1-yl)-2-oxoethyl)-1H-indol-6-ylphosphonate] was tested, and the IC50 was less than 1000 nM.
Compound `CCOP(=O)(CC)c1ccc2c(C(C)=O)cn(CC(=O)N3C[C@H](F)C[C@H]3C(=O)NCc3cccc(Cl)c3F)c2c1` (stereo partly drawn) [Compound 24, ethyl 3-acetyl-1-(2-((2S,4R)-2-(3-chloro-2-fluorobenzylcarbamoyl)-4-fluoropyrrolidin-1-yl)-2-oxoethyl)-1H-indol-6-yl(ethyl)phosphinate] has an IC50 of less than 1000 nM.
